Among the data in PMC6478909 (Scientific Reports, 2019) are Kd values, retold here.

For experiment [1], the target named is T1, precorrin-4 C(11)-methyltransferase (CobM), Cp-CobM (Corynebacterium pseudotuberculosis, UniProt D9QAC4). Nature of the experiment: biochemical. The format is binding.
The target in experiment [2] is T1, precorrin-4 C(11)-methyltransferase (CobM), Cp-CobM. Nature of the experiment: biochemical. It counts as binding. This is another data set of the same source.

Where two headings read alike, the source gives them in different places.

T1 sequence (D9QAC4 1-257): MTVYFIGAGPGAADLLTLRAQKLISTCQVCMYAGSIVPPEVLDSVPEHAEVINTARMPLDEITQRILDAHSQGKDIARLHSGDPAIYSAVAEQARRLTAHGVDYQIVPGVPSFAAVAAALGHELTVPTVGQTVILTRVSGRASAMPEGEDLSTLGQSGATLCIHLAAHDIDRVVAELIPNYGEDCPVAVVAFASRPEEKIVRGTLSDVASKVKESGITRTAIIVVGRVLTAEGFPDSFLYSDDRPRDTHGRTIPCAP

The term Kd denotes the equilibrium constant for the complex coming apart. Read a high Kd as a looser complex. `C[S+](CC[C@H](N)C(=O)[O-])C[C@H]1O[C@@H](n2cnc3c(N)ncnc32)[C@H](O)[C@@H]1O` (stereo partly shown) [SAM] had an equilibrium dissociation constant (Kd) in experiment [1] of 1.4 ± 0.7 µM.
On to `Nc1ncnc2nc[nH]c12` [adenine], for which the Kd in experiment [2] amounted to 17.8 ± 1.5 µM.
As for `Nc1ncnc2c1ncn2[C@H]1C[C@H](O)[C@@H](COP(=O)(O)OP(=O)(O)OP(=O)(O)O)O1` [dATP], the Kd in experiment [2] was 15.8 ± 2 µM.
`Cc1ccc(C(=O)Nc2ccc(S(=O)(=O)O)c3cc(S(=O)(=O)O)cc(S(=O)(=O)O)c23)cc1NC(=O)c1cccc(NC(=O)Nc2cccc(C(=O)Nc3cc(C(=O)Nc4ccc(S(=O)(=O)O)c5cc(S(=O)(=O)O)cc(S(=O)(=O)O)c45)ccc3C)c2)c1` [suramin] displayed a Kd in experiment [1] of 6.3 ± 1.1 µM.
